Measurements reported in US20220162191A1, “SMALL MOLECULE MODULATORS OF IL-17” (LEO PHARMA A/S, priority 2019, published 2022).
pEC50: −log10 of the molar value.

biological target: T1, human IL-17AA (Homo sapiens, UniProt Q16552); assay: IL-8 release assay in human epithelial keratinocytes adult (HEKa); assay type: cell-based; conditions: 3 ng/ml human IL-17AA + 10 ng/ml human TNFalpha, 68-72 h, IL-8 by HTRF, read-out: Rel EC50 L-8 release assay
T1 construct: host or cells: HEK (human embryonic kidney) cells
T1 sequence (Q16552 24-155) 1: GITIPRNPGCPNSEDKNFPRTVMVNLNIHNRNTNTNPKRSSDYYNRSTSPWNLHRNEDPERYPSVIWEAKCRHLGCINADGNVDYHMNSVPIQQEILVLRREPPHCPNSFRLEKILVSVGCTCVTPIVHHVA
T1 sequence (Q16552 24-155) 2: T1 sequence (Q16552 24-155) 1
In short: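 IL-8 secretion, quantified by HTRF (665/620 nm) as percent of controls, served as the readout after 68–72 h culture of HEKa cells with compound plus IL-17AA (3 ng/ml final) and TNF-alpha (10 ng/ml final). Four-parameter logistic curves gave relative IC50 and Emax.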

First: CC(C)n1cc(-c2ccc(Cl)c(CC(NC(=O)c3conc3C(C)(C)C)C(=O)Nc3ccc(-c4nncn4C)cc3)c2)ccc1=O (stereo not shown) [Example 96, 3-tert-butyl-N-[1-[[2-chloro-5-(1-isopropyl-6-oxo-3-pyridyl)phenyl]methyl]-2-[4-(4-methyl-1,2,4-triazol-3-yl)anilino]-2-oxo-ethyl]isoxazole-4-carboxamide]
Second: CC(C)OC(=O)N[C@@H](Cc1cc(-c2ccc(=O)n(C(C)C)c2)ccc1Cl)C(=O)Nc1ccc(-c2nncn2C)cc1 [Example 99, isopropyl N-[(1S)-1-[[2-chloro-5-(1-isopropyl-6-oxo-3-pyridyl)phenyl]methyl]-2-[4-(4-methyl-1,2,4-triazol-3-yl)anilino]-2-oxo-ethyl]carbamate]
The pEC50 of the first is higher: 6.00 to 7.00 for the first, less than 6.00 for the second. The first is the more potent here.

First: CC(C)n1cc(-c2ccc(Cl)c(CC(NC(=O)C(F)(F)c3ccccc3)C(=O)Nc3ccc(-c4nncn4C)cc3)c2)ccc1=O (stereo not shown) [Example 97, 3-[2-chloro-5-(1-isopropyl-6-oxo-3-pyridyl)phenyl]-2-[(2,2-difluoro-2-phenyl-acetyl)amino]-N-[4-(4-methyl-1,2,4-triazol-3-yl)phenyl]propanamide]
Second: CC(C)COC(=O)N[C@@H](Cc1cc(-c2ccc(=O)n(C(C)C)c2)ccc1Cl)C(=O)Nc1ccc(-c2nncn2C)cc1 [Example 100, isobutyl N-[(1S)-1-[[2-chloro-5-(1-isopropyl-6-oxo-3-pyridyl)phenyl]methyl]-2-[4-(4-methyl-1,2,4-triazol-3-yl)anilino]-2-oxo-ethyl]carbamate]
The pEC50 of the first is lower: less than 6.00 for the first, 6.00 to 7.00 for the second. The second is the more potent here.

`Cc1[nH]nnc1-c1ccc(NC(=O)C(Cc2cc(-c3ccc(=O)n(C(C)C)c3)ccc2Cl)NC(=O)c2ccnn2C)cc1` (stereo not shown) [Example 98, N-[1-[[2-chloro-5-(1-isopropyl-6-oxo-3-pyridyl)phenyl]methyl]-2-[4-(5-methyl-1H-triazol-4-yl)anilino]-2-oxo-ethyl]-2-methyl-pyrazole-3-carboxamide] and `Cc1nocc1C(=O)NC(Cc1cc(-c2ccc(=O)n(C(C)C)c2)ccc1Cl)C(=O)Nc1ccc(-c2ccnn2C)c(Cl)c1` (stereo not shown) [Example 102, N-[1-[[2-chloro-5-(1-isopropyl-6-oxo-3-pyridyl)phenyl]methyl]-2-[3-chloro-4-(2-methylpyrazol-3-yl)anilino]-2-oxo-ethyl]-3-methyl-isoxazole-4-carboxamide] fall in the same range of pEC50: 6.00 to 7.00 for the first, 6.00 to 7.00 for the second.

Going from `CC(C)n1cc(-c2ccc(Cl)c(CC(NC(=O)OC(C)(C)C)C(=O)Nc3ccc(-c4cncn4C)c(Cl)c3)c2)ccc1=O` (stereo not shown) [Example 101, tert-butyl N-[1-[[2-chloro-5-(1-isopropyl-6-oxo-3-pyridyl)phenyl]methyl]-2-[3-chloro-4-(3-methylimidazol-4-yl)anilino]-2-oxo-ethyl]carbamate] to `Cc1nocc1C(=O)NC(Cc1cc(-c2ccc(=O)n(C(C)C)c2)ccc1Cl)C(=O)Nc1ccc(-c2cncn2C)c(Cl)c1` (stereo not shown) [Example 103, N-[1-[[2-chloro-5-(1-isopropyl-6-oxo-3-pyridyl)phenyl]methyl]-2-[3-chloro-4-(3-methylimidazol-4-yl)anilino]-2-oxo-ethyl]-3-methyl-isoxazole-4-carboxamide], the pEC50 rises from less than 6.00 to greater than 7.00.

`CC(C)n1cc(-c2ccc(Cl)c(C[C@H](NC(=O)C3(F)CC3)C(=O)Nc3ccc(-c4cncn4C)cc3)c2)ccc1=O` [Example 104, N-[(1S)-1-[[2-chloro-5-(1-isopropyl-6-oxo-3-pyridyl)phenyl]methyl]-2-[4-(3-methylimidazol-4-yl)anilino]-2-oxo-ethyl]-1-fluoro-cyclopropanecarboxamide] and `Cc1nccn1-c1ccc(NC(=O)[C@H](Cc2cc(-c3ccc(=O)n(C(C)C)c3)ccc2Cl)NC(=O)C2(F)CC2)cc1` [Example 114, N-[(1S)-1-[[2-chloro-5-(1-isopropyl-6-oxo-3-pyridyl)phenyl]methyl]-2-[4-(2-methylimidazol-1-yl)anilino]-2-oxo-ethyl]-1-fluoro-cyclopropanecarboxamide] fall in the same range of pEC50: 6.00 to 7.00 for the first, 6.00 to 7.00 for the second.

First: CC(C)n1cc(-c2ccc(Cl)c(CC(NC(=O)OC3CCC3)C(=O)Nc3ccc(-c4nncn4C)cc3)c2)ccc1=O (stereo not shown) [Example 105, cyclobutyl N-[1-[[2-chloro-5-(1-isopropyl-6-oxo-3-pyridyl)phenyl]methyl]-2-[4-(4-methyl-1,2,4-triazol-3-yl)anilino]-2-oxo-ethyl]carbamate]
Second: CC(C)n1cc(-c2ccc(Cl)c(CC(NC(=O)OCC3(C)CC3)C(=O)Nc3ccc(-c4nncn4C)cc3)c2)ccc1=O (stereo not shown) [Example 106, (1-methylcyclopropyl)methyl N-[1-[[2-chloro-5-(1-isopropyl-6-oxo-3-pyridyl)phenyl]methyl]-2-[4-(4-methyl-1,2,4-triazol-3-yl)anilino]-2-oxo-ethyl]carbamate]
The pEC50 of the first is higher: 6.00 to 7.00 for the first, less than 6.00 for the second.

First: Cc1nocc1C(=O)NC(Cc1cc(-c2cccc(C(=O)N(C)C3CC3)c2)ccc1Cl)C(=O)Nc1ccc(-c2nncn2C)cc1 (stereo not shown) [Example 107, N-[1-[[2-chloro-5-[3-[cyclopropyl(methyl)carbamoyl]phenyl]phenyl]methyl]-2-[4-(4-methyl-1,2,4-triazol-3-yl)anilino]-2-oxo-ethyl]-3-methyl-isoxazole-4-carboxamide]
Second: Cc1nocc1C(=O)NC(Cc1cc(-c2cccc(C(=O)N3CCC3)c2)ccc1Cl)C(=O)Nc1ccc(-c2nncn2C)cc1 (stereo not shown) [Example 113, N-[1-[[5-[3-(azetidine-1-carbonyl)phenyl]-2-chloro-phenyl]methyl]-2-[4-(4-methyl-1,2,4-triazol-3-yl)anilino]-2-oxo-ethyl]-3-methyl-isoxazole-4-carboxamide]
The pEC50 of the first is higher: 6.00 to 7.00 for the first, less than 6.00 for the second.

`CCc1cccc(-c2ccc(Cl)c(CC(NC(=O)c3ccnn3C)C(=O)Nc3ccc(-c4nncn4C)cc3)c2)c1` (stereo not shown) [Example 108, N-[1-[[2-chloro-5-(3-ethylphenyl)phenyl]methyl]-2-[4-(4-methyl-1,2,4-triazol-3-yl)anilino]-2-oxo-ethyl]-2-methyl-pyrazole-3-carboxamide] and `CCOc1cccc(-c2ccc(Cl)c(CC(NC(=O)c3ccnn3C)C(=O)Nc3ccc(-c4nncn4C)cc3)c2)c1` (stereo not shown) [Example 110, N-[1-[[2-chloro-5-(3-ethoxyphenyl)phenyl]methyl]-2-[4-(4-methyl-1,2,4-triazol-3-yl)anilino]-2-oxo-ethyl]-2-methyl-pyrazole-3-carboxamide] fall in the same range of pEC50: 6.00 to 7.00 for the first, 6.00 to 7.00 for the second.

`Cn1cnnc1-c1ccc(NC(=O)C(Cc2cc(-c3cccc(C(C)(C)O)c3)ccc2Cl)NC(=O)c2ccnn2C)cc1` (stereo not shown) [Example 109, N-[1-[[2-chloro-5-[3-(1-hydroxy-1-methyl-ethyl)phenyl]phenyl]methyl]-2-[4-(4-methyl-1,2,4-triazol-3-yl)anilino]-2-oxo-ethyl]-2-methyl-pyrazole-3-carboxamide] and `Cn1cnnc1-c1ccc(NC(=O)C(Cc2cc(-c3cccc(OC(F)(F)F)c3)ccc2Cl)NC(=O)c2ccnn2C)cc1` (stereo not shown) [Example 111, N-[1-[[2-chloro-5-[3-(trifluoromethoxy)phenyl]phenyl]methyl]-2-[4-(4-methyl-1,2,4-triazol-3-yl)anilino]-2-oxo-ethyl]-2-methyl-pyrazole-3-carboxamide] fall in the same range of pEC50: 6.00 to 7.00 for the first, 6.00 to 7.00 for the second.

Compound `Cn1cnnc1-c1ccc(NC(=O)C(Cc2cc(-c3cccc(OC(F)F)c3)ccc2Cl)NC(=O)c2ccnn2C)cc1` (stereo not shown) [Example 112, N-[1-[[2-chloro-5-[3-(difluoromethoxy)phenyl]phenyl]methyl]-2-[4-(4-methyl-1,2,4-triazol-3-yl)anilino]-2-oxo-ethyl]-2-methyl-pyrazole-3-carboxamide] has a pEC50 of 6.00 to 7.00.
